Results from patent publication US12545658B2, “Pyridine derivatives as calcium-activated chloride channel modulators” (TMEM16A LIMITED, priority 2019, dated 2026).

Target: T1, human TMEM16A (TMEM16Aabc variant) (Homo sapiens, UniProt Q5XXA6)
T1 construct: human TMEM16A (TMEM16Aabc variant)
T1 sequence (Q5XXA6 1-986): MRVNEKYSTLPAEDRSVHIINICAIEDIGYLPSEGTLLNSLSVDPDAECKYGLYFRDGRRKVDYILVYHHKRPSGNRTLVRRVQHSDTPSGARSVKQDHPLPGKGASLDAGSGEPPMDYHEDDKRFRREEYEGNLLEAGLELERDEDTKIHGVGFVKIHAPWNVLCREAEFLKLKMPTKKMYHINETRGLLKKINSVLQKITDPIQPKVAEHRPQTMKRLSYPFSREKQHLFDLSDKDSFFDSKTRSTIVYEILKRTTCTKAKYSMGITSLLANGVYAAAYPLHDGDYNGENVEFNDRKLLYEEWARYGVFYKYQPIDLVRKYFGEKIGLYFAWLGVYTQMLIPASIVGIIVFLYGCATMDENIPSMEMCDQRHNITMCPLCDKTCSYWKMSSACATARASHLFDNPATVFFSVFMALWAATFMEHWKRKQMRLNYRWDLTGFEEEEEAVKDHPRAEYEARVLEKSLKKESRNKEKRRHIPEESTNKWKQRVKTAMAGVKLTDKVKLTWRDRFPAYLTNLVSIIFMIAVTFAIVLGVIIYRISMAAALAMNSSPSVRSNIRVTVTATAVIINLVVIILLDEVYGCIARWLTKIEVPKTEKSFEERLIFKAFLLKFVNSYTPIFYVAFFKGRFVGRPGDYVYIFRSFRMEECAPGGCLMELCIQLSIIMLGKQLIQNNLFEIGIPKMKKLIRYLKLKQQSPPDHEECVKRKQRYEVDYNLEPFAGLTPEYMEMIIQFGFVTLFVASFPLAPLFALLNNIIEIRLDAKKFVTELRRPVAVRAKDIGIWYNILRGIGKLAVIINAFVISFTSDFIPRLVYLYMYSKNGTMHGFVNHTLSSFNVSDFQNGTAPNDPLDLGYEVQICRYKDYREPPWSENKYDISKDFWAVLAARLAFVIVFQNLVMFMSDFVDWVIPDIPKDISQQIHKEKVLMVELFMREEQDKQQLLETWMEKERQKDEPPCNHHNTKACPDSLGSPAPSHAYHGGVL
Assay: Automated whole-cell patch clamp (QPatch) TMEM16A potentiator assay in FRT cells stably expressing human TMEM16A
Format: cell-based
Conditions: for QPatch TMEM16A % Potentiation @ 370 nM: 370 nM test compound; for QPatch TMEM16A % Potentiation @ 370 nM / QPatch TMEM16A % Potentation @ 3.3 μM: percentage increase of baseline TMEM16A current; for QPatch TMEM16A % Potentation @ 3.3 μM: 3.3 μM test compound; for EC50: FRT-TMEM16A cells, whole-cell patch clamp, peak current at +70 mV, intracellular calcium at EC20; for EC50 compared with Compound B: indole compounds versus comparator Compound B
Protocol: Fisher rat thyroid (FRT) cells stably expressing human TMEM16A (TMEM16Aabc variant; Dr Luis Galietta, Insituto Giannina, Italy) were cultured in T-75 flasks in Hams F-12 media with Coon's modification (Sigma) supplemented with 10% (v/v) foetal bovine serum, penicillin-streptomycin (10,000 U/mL/10000 μg/mL), G-418 (750 μg/mL), L-glutamine (2 mM) and sodium bicarbonate solution (7.5% v/v). At ˜90% confluence cells were harvested for experiments by detachment with a 2:1 (v/v) mixture of Detachin (BMS Biotechnology) and 0.25% (w/v) trypsin-EDTA.
FRT-TMEM16A cells were whole-cell patch clamped using an automated planar patch clamp system (Qpatch, Sophion). Briefly, once high resistance (GOhm) seals were established between the cells and the planar recording array the patch was ruptured using suction pulses to establish the whole-cell recording configuration of the patch clamp technique. The assay employed the following solutions (all reagents Sigma): Intracellular solution (mM): N-methyl-D-glucamine 130, CaCl2 18.2, MgCl2 1, HEPES 10, EGTA 10, BAPTA 20, Mg-ATP 2, pH 7.25, 325 mOsm with sucrose.
Extracellular solution (mM): N-methyl-D-glucamine 130, CaCl2 2, MgCl2 1, HEPES 10, pH 7.3, 320 mOsm with sucrose.
The intracellular solution buffers intracellular calcium at levels required to give ˜20% activation of the maximal TMEM16A mediated current (EC20 for calcium ions). Cells were voltage clamped at a holding potential of −70 mV and a combined voltage step (to +70 mV)/ramp (−90 my to +90 mV) was applied at 0.05 Hz. After a period of current stabilisation test compounds, solubilised in 100% (v/v) DMSO and subsequently diluted into extracellular solution, were applied to generate a cumulative concentration response curve. Each concentration of test compound was incubated for 5 minutes before addition of the next concentration. After the final concentration was tested a supramaximal concentration of either a known active positive modulator or the TMEM16A inhibitor, CaCCinhA01 (Del La Fuente et al, 2008) was added to define the upper and lower limits of the assay.
Compound activity was quantified by measuring the increase in current upon compound addition and expressing this as a percentage increase of baseline TMEM16A current level.
In FIG. 1, IBL equals baseline current, I[#1] equals the peak current during test compound concentration 1 incubation period and so on.
Peak TMEM16A current at +70 mV was plotted as a function of time over the assay period. Baseline current (IBL) was measured after a period of stabilisation. The increase in current for each compound addition was determined by taking the peak current during the incubation period and subtracting the current from the previous recording period and then expressing this as a percentage of the baseline current (% potentiation). For test compound concentration 1 in FIG. 1 this is: (I[#1]−IBL/IBL)×100 For each additional concentration tested the increase in current was determined by subtracting the current from the previous incubation period and normalising the baseline value—for test concentration 2 in FIG. 1 this is: (I[#2]−I[#1])/IBL)×100 The values for each test concentration were plotted as a cumulative function of concentration eg. for test concentration two this would be the sum of the peak changes measured during concentration one plus concentration two.

C#CC(C)(C)NC(=O)c1cc(NC(=O)Cc2cccc3[nH]ncc23)ccn1 [Compound A, reference compound]
QPatch TMEM16A % Potentiation @ 370 nM: 43%
QPatch TMEM16A % Potentation @ 3.3 μM: 223%
EC50: 1930 nM

C#CC(C)(C)NC(=O)c1cc(NC(=O)Cc2ccc3cc[nH]c3c2)ccn1 [Example 1, N-(1,1-Dimethylprop-2-ynyl)-4-[[2-(1H-indol-6-yl)acetyl]amino]pyridine-2-carboxamide]
QPatch TMEM16A % Potentiation @ 370 nM: 50%
QPatch TMEM16A % Potentation @ 3.3 μM: 38%
EC50: 20 nM
EC50 compared with Compound B: lower EC50 values than Compound B

CC1(NC(=O)c2cc(NC(=O)Cc3ccc4cn[nH]c4c3)ccn2)CC(F)(F)C1 [Example 4.3, N-(3,3-Difluoro-1-methyl-cyclobutyl)-4-[[2-(1H-indazol-6-yl)acetyl]amino]pyridine-2-carboxamide]
QPatch TMEM16A % Potentiation @ 370 nM: 173%
QPatch TMEM16A % Potentation @ 3.3 μM: 226%
EC50: 50 nM

CC(C)(C)NC(=O)c1cc(NC(=O)Cc2ccc3cn[nH]c3c2)ccn1 [Example 2, N-tert-Butyl-4-[[2-(1H-indazol-6-yl)acetyl]amino]pyridine-2-carboxamide]
QPatch TMEM16A % Potentiation @ 370 nM: 87%
QPatch TMEM16A % Potentation @ 3.3 μM: 131%
EC50: 180 nM

O=C(Cc1ccc2cn[nH]c2c1)Nc1ccnc(C(=O)NC2(C(F)(F)F)CCC2)c1 [Example 5.1, 4-[[2-(1H-Indazol-6-yl)acetyl]amino]-N-[1-(trifluoromethyl)cyclobutyl]pyridine-2-carboxamide]
QPatch TMEM16A % Potentiation @ 370 nM: 76%
QPatch TMEM16A % Potentation @ 3.3 μM: 110%
EC50: 150 nM

CC(C)(C)NC(=O)c1cc(NC(=O)Cc2cc(Cl)c3cn[nH]c3c2)ccn1 [Example 7.2, N-tert-Butyl-4-[[2-(4-chloro-1H-indazol-6-yl)acetyl]amino]pyridine-2-carboxamide]
QPatch TMEM16A % Potentiation @ 370 nM: 102%
QPatch TMEM16A % Potentation @ 3.3 μM: 142%
EC50: 140 nM

CC(C)c1n[nH]c2cc(CC(=O)Nc3ccnc(C(=O)NC(C)(C)C)c3)ccc12 [Example 9, N-tert-Butyl-4-[[2-(3-isopropyl-1H-indazol-6-yl)acetyl]amino]pyridine-2-carboxamide]
QPatch TMEM16A % Potentiation @ 370 nM: 113%
QPatch TMEM16A % Potentation @ 3.3 μM: 200%
EC50: 280 nM

CC(C)(C)NC(=O)c1cc(NC(=O)Cc2ccc3c(C(F)(F)F)n[nH]c3c2)ccn1 [Example 8, N-tert-Butyl-4-[[2-[3-(trifluoromethyl)-1H-indazol-6-yl]acetyl]amino]pyridine-2-carboxamide]
QPatch TMEM16A % Potentiation @ 370 nM: 65%
QPatch TMEM16A % Potentation @ 3.3 μM: 98%
EC50: 210 nM

CC(C)(NC(=O)c1cc(NC(=O)Cc2ccc3cn[nH]c3c2)ccn1)C(F)F [Example 5, N-(2,2-Difluoro-1,1-dimethyl-ethyl)-4-[[2-(1H-indazol-6-yl)acetyl]amino] pyridine-2-carboxamide]
QPatch TMEM16A % Potentiation @ 370 nM: 80%
QPatch TMEM16A % Potentation @ 3.3 μM: 104%
EC50: 110 nM

CC(O)(c1n[nH]c2cc(CC(=O)Nc3ccnc(C(=O)NC4(C(F)(F)F)CC4)c3)ccc12)C(F)(F)F (stereo not drawn) [Example 12, 4-[[2-[3-(2,2,2-Trifluoro-1-hydroxy-1-methyl-ethyl)-1H-indazol-6-yl]acetyl]amino]-N-[1-(trifluoromethyl)cyclopropyl]pyridine-2-carboxamide]
QPatch TMEM16A % Potentiation @ 370 nM: 204%
QPatch TMEM16A % Potentation @ 3.3 μM: 338%
EC50: 240 nM

O=C(Cc1ccc2cn[nH]c2c1)Nc1ccnc(C(=O)NC23CC(F)(C2)C3)c1 [Example 11.5, N-(3-Fluoro-1-bicyclo[1.1.1]pentanyl)-4-[[2-(1H-indazol-6-yl)acetyl]amino]pyridine-2-carboxamide]
QPatch TMEM16A % Potentiation @ 370 nM: 41%
QPatch TMEM16A % Potentation @ 3.3 μM: 61%
EC50: 140 nM

O=C(Cc1ccc2cn[nH]c2c1)Nc1ccnc(C(=O)NC2(C(F)(F)F)CC2)c1 [Example 4.2, 4-[[2-(1H-Indazol-6-yl)acetyl]amino]-N-[1-(trifluoromethyl)cyclopropyl]pyridine-2-carboxamide]
QPatch TMEM16A % Potentiation @ 370 nM: 112%
QPatch TMEM16A % Potentation @ 3.3 μM: 155%
EC50: 100 nM

N#CC1(NC(=O)c2cc(NC(=O)Cc3ccc4cc[nH]c4c3)ccn2)CCOCC1 [Example 13.2, N-(4-Cyanotetrahydropyran-4-yl)-4-[[2-(1H-indol-6-yl)acetyl]amino] pyridine-2-carboxamide]
QPatch TMEM16A % Potentiation @ 370 nM: 98%
QPatch TMEM16A % Potentation @ 3.3 μM: 134%
EC50: 130 nM
EC50 compared with Compound B: lower EC50 values than Compound B
maximum potentiation of TMEM16A compared with Compound B (versus comparator Compound B): improved maximum potentiation of TMEM16A

C#CC(C)(C)NC(=O)c1cc(NC(=O)Cc2ccc3cn[nH]c3c2)ccn1 [Example 3, N-(1,1-Dimethylprop-2-ynyl)-4-[[2-(1H-indazol-6-yl)acetyl]amino]pyridine-2-carboxamide]
QPatch TMEM16A % Potentiation @ 370 nM: 68%
QPatch TMEM16A % Potentation @ 3.3 μM: 96%
EC50: 20 nM

CC(C)(C)NC(=O)c1cc(NC(=O)Cc2cc3[nH]ncc3cc2Cl)ccn1 [Example 7.1, N-tert-Butyl-4-[[2-(5-chloro-1H-indazol-6-yl)acetyl]amino]pyridine-2-carboxamide]
QPatch TMEM16A % Potentiation @ 370 nM: 47%
QPatch TMEM16A % Potentation @ 3.3 μM: 82%
EC50: 270 nM

O=C(Cc1cc2[nH]ncc2cc1F)Nc1ccnc(C(=O)NC2CCCC2(F)F)c1 (stereo not drawn) [Example 6.2, N-(2,2-Difluorocyclopentyl)-4-[[2-(5-fluoro-1H-indazol-6-yl)acetyl]amino]pyridine-2-carboxamide]
QPatch TMEM16A % Potentiation @ 370 nM: 46%
QPatch TMEM16A % Potentation @ 3.3 μM: 70%
EC50: 310 nM

CC(C)(NC(=O)c1cc(NC(=O)Cc2ccc3cc[nH]c3c2)ccn1)C(F)(F)F [Example 13, 4-[[2-(1H-Indol-6-yl)acetyl]amino]-N-(2,2,2-trifluoro-1,1-dimethyl-ethyl) pyridine-2-carboxamide]
QPatch TMEM16A % Potentiation @ 370 nM: 47%
QPatch TMEM16A % Potentation @ 3.3 μM: 93%
EC50: 410 nM

C#CC1(NC(=O)c2cc(NC(=O)Cc3cc(Cl)c4cn[nH]c4c3)ccn2)CCCC1 [Example 6.4, 4-[[2-(4-Chloro-1H-indazol-6-yl)acetyl]amino]-N-(1-ethynylcyclopentyl) pyridine-2-carboxamide]
QPatch TMEM16A % Potentiation @ 370 nM: 55%
QPatch TMEM16A % Potentation @ 3.3 μM: 78%
EC50: 20 nM
